In patent US20240376098A1, “METHODS OF TREATMENT USING BCN057, BCN077 AND ANALOGS” (BCN Biosciences L.L.C., priority 2021, published 2024):

Assays:
Lgr5+ ISCs = assay: Lgr5+ intestinal stem cells in 5FU treated Lgr5-Cre-ERT-GFP mice; type: in vivo; details: 5FU treated mice, confocal microscopic imaging
Experimental: 5FU is a component of FOLFIRINOX and the active agent metabolized from Capecitabine (Xeloda®). To, examine the effect of BCN057 against chemo induced toxicity in Lgr5+ ISCs, Lgr5-Cre-ERT-GFP mice were pre-treated with 5FU as reported and then subjected to BCN057 treatment.
Stains of GI crypts with green=LGR5+ stem cells. Mice were treated with 5FU and 5FU+BCN057 for 5 days. BCN057 was administered for two extra days after 5FU treatment. Small intestine samples were harvested and stained for LGR5 at 3 days after the last 5FU injection. FIG. 5D is a histogram of the quantitation by % of LGR5+ cells remaining in […] sections at the crypt base showing prevention of 5-FU induced apoptosis in LGR5+ stem cells in GI.

[1] = tested on: KRAS mutant G12D invasive pancreatic cancer cell lines; assay: Proliferation of pancreatic cancer cell lines with analogues of BCN057; type: cell-based
[2] = tested on: PD-1 expression on human T-lymphocytes; assay: Western blot of PD-1 on T-lymphocytes co-cultured with Panc-1 cells; type: cell-based; details: 15 minutes to 24 hours
Experimental: Cell lines and cell culture: Panc-1 cells were cultured in DMEM medium supplemented with 10% Fetal Bovine Serum and maintained at 37° C.5% CO2. Human Peripheral Blood Pan-T Cells were cultured in serum free T cells expansion media with 10 ng/ml of rhIL-2, T-cell activator and expanded as per the manufacturer instructions. Panc-1 cells and T-Cells were grown and expanded separately in T75 flasks. For co-culture experiments with Panc-1 cell, 2.5 million T-cells per well were plated in the well using a 6 well plate. 2.5 million Panc-1 Cells were plated in the thinsert which was placed into the well of the 6 well plate in order to have the cells physically separated but share media. The cells were incubated for 24 hours at 37° C., 5% CO2. At 24 hours the media was replaced with media containing vehicle, or 10 uM BCN057 and were incubated for the following timepoints: 1 hr, 6 hr, 12 hr, 24 hrs. The Panc-1 cells were removed by gently scraping the cells from the thinsert.
Western Blot: Cells were harvested and lysed in cell lysis buffer on ice for 15 minutes and the lysate was centrifuged at 13,000 rpm at 4° C. for 10 minutes. The supernatant was transferred into a new tube for BCA protein quantification assay (Thermo Fisher Scientific) and the samples were normalized. 3× loading buffer (Cell Signaling) was added the protein sample and boiled for 5 minutes. The samples were used for SDS-PAGE analysis and transferred to nitrocellulose membrane. The membrane was blocked with 5% BSA at room temperature for 1 hour and incubated with primary antibody at 4° C. overnight. The membrane was washed with 1×TBST 5 minutes for 3 times and incubated with horseradish peroxidase-conjugated secondary antibody for 1 hour at room temperature. The protein was visualized by SuperSignal West Pico Stable Peroxide Solution (Thermo Fisher Scientific). The blot was visualized by chemiluminescence using a BioRad Versadoc Imaging System.
BCN057 and Immune Checkpoint blockade: An emerging method of treatment for many forms of cancer, including PDAC, is immune checkpoint inhibitors. […]

[3] = tested on: pancreatic ductal adenocarcinoma cells (AsPC-1, BxPC-3, MIA PaCa-2 and Panc-1); details: range over AsPC-1, BxPC-3, MIA PaCa-2 and Panc-1; limits printed in nM and μM; cited from earlier work
[4] = tested on: human KRAS G12D mutant colorectal cancer cell line LS174T; assay: Viability of LS174T colorectal cancer cells; type: cell-based; details: viability versus concentration
Text: FIG. 9 is a graph of viability versus concentration of BCN077.

SMILES	Proliferation of KRAS mutant G12D invasive pancreatic cancer cell lines [1]	PD1 expression in co-culture of T-cells and Panc1 cells [2]	other results
O=c1[nH]cc(F)c(=O)[nH]1 [5FU, 5-Fluorouracil, reference compound]	–	–	Lgr5+ ISCs in jejunal section (Lgr5+ ISCs): significant loss of Lgr5+ ISCs
CONCCC(=O)Nc1c(-c2cc3ccc(OC)cc3[nH]c2=O)nc2c(C)cccn12 [BCN036]	inhibition of proliferation	inhibit PD1 expression over time	–
Nc1ccn([C@@H]2O[C@H](CO)[C@@H](O)C2(F)F)c(=O)n1 [gemcitabine]	–	–	IC50 [3]: 494 to 23900 nM
CNCCC(=O)Nc1c(-c2cc3ccc(OC)cc3[nH]c2=O)nc2c(C)cccn12.Cl [BCN076]	inhibition of proliferation	inhibit PD1 expression over time	–
COc1ccc2cc(-c3nc4c(C)cccn4c3NC(=O)c3cccc(F)c3)c(=O)[nH]c2c1 [BCN077]	inhibition of proliferation	–	Activity on viability of LS174T [4]: potent activity
